This passage reports IC50 results from US12421254B2, “KRAS modulators and uses thereof” (Quanta Therapeutics, Inc., priority 2023, dated 2025).

Each structure is given as a SMILES string.

Test [1] has as its system phospho-ERK in SW620 (KRAS-G12V) cells. Nature of the test: pERK In Cell Western (ICW) assay (Method B), SW620. As to conditions: Homo sapiens, SW-620, 3 h, Table 4. In kind it is cell-based. On the procedure: pERK ICW is a high throughput screening assay to evaluate the cellular potency of mutant KRAS small molecule inhibitors. KRAS mutant cell lines AGS, GP2D (KRAS-G12D) as well as SW620 (KRAS-G12V) were purchased from ATCC and maintained respectively in RPMI/DMEM/RPMI medium supplemented with 10% fetal bovine serum.
Cells grown in exponential phase were trypsinized, resuspended in fresh media, and viable cells were counted using a cell counter with Trypan Blue (BioRad TC20). Cells were seeded into 384-well plate (Greiner 781091) at density of 5,000 cells/well for AGS and 10,000 cells/well for GP2D/SW620 and allowed to grow overnight in a 37° C. CO2 incubator. The next day, compounds were dispensed into wells with a ½ log, 9-point serial dilution using a Tecan D300e dispenser and incubated for 3 hours in a 37° C. CO2 incubator. Cells were then fixed with paraformaldehyde (Electron Microscopy Sciences, 15710, 4% final concentration) for 30 min, permeabilized with wash buffer (1×PBS+0.1% Triton X-100) for 30 min and blocked with Odyssey blocking buffer (Li—COR 927-70001) for 1 hour, all at room temperature (RT). Phospho-ERK antibody (CST 4370L) was diluted 1:500 in Odyssey T20 (PBS) antibody diluent (Li—COR 927-75001) and incubated with cells overnight at 4° C. The next day, plates were washed 5× with wash buffer, incubated with IRDye 800 CW, Goat anti-Rabbit secondary antibody (Li—COR 926-32211, 1:800) and DRAQ5 (CST 4084L, 1:5,000) diluted in Odyssey T20 (PBS) antibody diluent for 1 hour, washed 5×, and imaged on an Odyssey CLx imaging system.
For data analysis, signal intensities from 800 (phosphor-ERK) and 700 (DRAQ5) channels were extracted, and phospho-ERK signals were normalized to DRAQ5 signals for each well and percent of blank control values were computed. Data were then imported into Graphpad Prism to compute half-maximal inhibitory concentrations (IC50) using a 4-parameter variable slope model. Z-factor for each plate was computed from signals derived from wells treated with either DMSO or 5 μM of control compound. AGS pERK ICW (Method B) IC50 (uM) values of selected compounds are depicted in Table 2 with compounds having a value ≥0.001 uM to 0.01 uM as ++++; ≥0.01 uM to 0.1 uM as +++; ≥0.1 uM to 1 uM as ++; ≥1 uM to 10 uM as + and ≥10 uM as NA.

Test [2] deals with GST-tagged KRAS-G12V (2-169) (Homo sapiens, UniProt P01116, G12V). Nature of the test: Nucleotide exchange assay (NEA), SOS-mediated, HTRF, KRAS G12V. In kind it is biochemical. The settings on record: Table 4; IC50 extracted at 90 min; 80 nM SOS. The procedure, abridged:
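Exchange onto fluorescent GTP-DY-647P1 (150 nM final) catalysed by 80 nM SOS1cat was followed by Tb-anti-GST HTRF at RT for up to 90 min, after 1 h compound pre-incubation with 0.25 nM GST-tagged KRAS-G12V (2-169), pH 7.3. DMSO = 0%, no-SOS blank = 100%; 4-parameter IC50 taken at 90 min.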

Test [3] deals with GST-tagged KRAS-G12D (2-169) (Homo sapiens, UniProt P01116, G12D). Nature of the test: Nucleotide exchange assay (NEA), SOS-mediated, HTRF, KRAS G12D. In kind it is biochemical. As to conditions: Table 4; IC50 extracted at 30 min; 20 nM SOScat; read-out: NEA G12D IC50. In a few lines: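 SOS1cat-driven loading of fluorescent GTP-DY-647P1 (150 nM) onto GST-KRAS-G12D (2-169, 0.25 nM) read by time-resolved FRET; SOScat 20 nM, compound preincubated with KRAS 1 h at RT. Signal blanked to no-SOS reactions, normalized to DMSO; IC50 fitted from the 30-min read.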
GST-tagged KRAS-G12D (2-169), sequence (P01116 2-169 isoform P01116-2 G12D): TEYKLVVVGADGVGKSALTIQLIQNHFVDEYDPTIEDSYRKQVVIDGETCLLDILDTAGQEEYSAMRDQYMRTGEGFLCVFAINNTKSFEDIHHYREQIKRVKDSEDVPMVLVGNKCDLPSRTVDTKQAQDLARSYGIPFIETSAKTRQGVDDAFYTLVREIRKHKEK
For orientation: Time-resolved FRET reads energy transfer from a long-lived donor to a nearby acceptor.

GST-tagged KRAS-G12V (2-169), sequence (P01116 2-169 isoform P01116-2 G12V): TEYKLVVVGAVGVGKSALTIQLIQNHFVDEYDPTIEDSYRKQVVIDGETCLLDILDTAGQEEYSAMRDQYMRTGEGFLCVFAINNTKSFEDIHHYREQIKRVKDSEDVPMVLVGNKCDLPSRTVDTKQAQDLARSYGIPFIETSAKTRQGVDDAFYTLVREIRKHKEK

Regarding `N#Cc1c(N)sc2c1C1(CN(c3nc(OC[C@@]45CCCN4C[C@H](F)C5)nc(N4[C@H]5CC[C@]4(CO)COC5)n3)C1)SC2` [Compound 200, 2′-amino-1-(4-(((2R,7aS)-2-fluorotetrahydro-1H-pyrrolizin-7a(5H)-yl)methoxy)-6-((1S,5S)-1-(hydroxymethyl)-3-oxa-8-azabicyclo[3.2.1]octan-8-yl)-1,3,5-triazin-2-yl)-6′H-spiro[azetidine-3,4′-thieno[3,4-b]thiophene]-3′-carbonitrile], the IC50 (in general, the concentration that inhibits the measured activity by half) in test [1] is 0.1 to 1 µM; in test [2], below 0.01 µM; in test [3], 0.01 to 0.1 µM.

In the case of `C#CC(C)N(CC#N)c1nc(OC[C@@]23CCCN2C[C@H](F)C3)nc(N2CC3(C2)SCc2sc(N)c(C#N)c23)n1` (stereo partly drawn) [Compound 244, 2-amino-1′-[4-[cyanomethyl(1-methylprop-2-ynyl)amino]-6-[[(2R,8S)-2-fluoro-1,2,3,5,6,7-hexahydropyrrolizin-8-yl]methoxy]-1,3,5-triazin-2-yl]spiro[6H-thieno[3,4-b]thiophene-4,3′-azetidine]-3-carbonitrile], the IC50 was 0.1 to 1 µM in test [1], below 0.01 µM in test [2] and below 0.01 µM in test [3].

Consider `N#CCN(c1nc(OC[C@@]23CCCN2C[C@H](F)C3)nc(N2CC3(C2)SCc2sc(N)c(C#N)c23)n1)C1(C#N)CC1` [Compound 251, 2-amino-1′-[4-[(1-cyanocyclopropyl)-(cyanomethyl)amino]-6-[[(2R,8S)-2-fluoro-1,2,3,5,6,7-hexahydropyrrolizin-8-yl]methoxy]-1,3,5-triazin-2-yl]spiro[6H-thieno[3,4-b]thiophene-4,3′-azetidine]-3-carbonitrile], for which the values for the IC50 in test [1], in test [2] and in test [3] were 0.01 to 0.1 µM, below 0.01 µM and below 0.01 µM, respectively.

On to `CC1(O)CCCN(c2nc(OCC34CCCN3C(COc3cc(C(F)(F)F)ncn3)CC4)nc(N3CC4(C3)SCc3sc(N)c(C#N)c34)n2)C1` (single isomer, unassigned) [Compound 256A], for which the values for the IC50 in test [1], in test [2] and in test [3] were 0.1 to 1 µM, below 0.01 µM and below 0.01 µM, respectively.

As to `CCN(CC1(C#N)CC1)c1nc(OC[C@@]23CCCN2C[C@H](F)C3)nc(N2CC3(C2)SCc2sc(N)c(C#N)c23)n1` [Compound 241, 2-amino-1′-[4-[(1-cyanocyclopropyl)methyl-ethyl-amino]-6-[[(2R,8S)-2-fluoro-1,2,3,5,6,7-hexahydropyrrolizin-8-yl]methoxy]-1,3,5-triazin-2-yl]spiro[6H-thieno[2,3-c]thiophene-4,3′-azetidine]-3-carbonitrile], the IC50 is 0.1 to 1 µM in test [1], below 0.01 µM in test [2] and below 0.01 µM in test [3].

As to `CCN(CC#N)c1nc(OC[C@@]23CCCN2C[C@H](F)C3)nc(N2CC3(C2)SCc2sc(N)c(C#N)c23)n1` [Compound 237, 2-amino-1′-[4-[cyanomethyl(ethyl)amino]-6-[[(2R,8S)-2-fluoro-1,2,3,5,6,7-hexahydropyrrolizin-8-yl]methoxy]-1,3,5-triazin-2-yl]spiro[6H-thieno[3,4-b]thiophene-4,3′-azetidine]-3-carbonitrile], the IC50 in test [1] is 0.01 to 0.1 µM; in test [2], below 0.01 µM; in test [3], below 0.01 µM.

For the compound `CCN(c1nc(OC[C@@]23CCCN2C[C@H](F)C3)nc(N2CC3(C2)SCc2sc(N)c(C#N)c23)n1)[C@H](C)C(N)=O` [Compound 235, (2R)-2-[[4-(2-amino-3-cyano-spiro[6H-thieno[3,4-b]thiophene-4,3′-azetidine]-1′-yl)-6-[[(2R,8S)-2-fluoro-1,2,3,5,6,7-hexahydropyrrolizin-8-yl]methoxy]-1,3,5-triazin-2-yl]-ethyl-amino]propanamide], the half-inhibitory concentration (IC50) in test [1] is 0.1 to 1 µM; in test [2] it was below 0.01 µM; in test [3], below 0.01 µM.
